Test results published in patent US10179128B2, “Regimens for treating and preventing lysosomal disorders and degenerative disorders of the central nervous system” (Amicus Therapeutics, Inc., priority 2015, dated 2019).
Where a chain is given by its changes, count along the chain named. Structures can show the parent of a compound that is named as a salt.

Assays:
[1] = Bioavailability (plasma as percent oral dose); assay type: in vivo
[2] = molecular target: T1, GCase (Mus musculus, UniProt P17439); assay: ED50 in brain; assay type: in vivo
T1 construct: from tissue; host or cells: brain
T1 sequence (P17439 20-515): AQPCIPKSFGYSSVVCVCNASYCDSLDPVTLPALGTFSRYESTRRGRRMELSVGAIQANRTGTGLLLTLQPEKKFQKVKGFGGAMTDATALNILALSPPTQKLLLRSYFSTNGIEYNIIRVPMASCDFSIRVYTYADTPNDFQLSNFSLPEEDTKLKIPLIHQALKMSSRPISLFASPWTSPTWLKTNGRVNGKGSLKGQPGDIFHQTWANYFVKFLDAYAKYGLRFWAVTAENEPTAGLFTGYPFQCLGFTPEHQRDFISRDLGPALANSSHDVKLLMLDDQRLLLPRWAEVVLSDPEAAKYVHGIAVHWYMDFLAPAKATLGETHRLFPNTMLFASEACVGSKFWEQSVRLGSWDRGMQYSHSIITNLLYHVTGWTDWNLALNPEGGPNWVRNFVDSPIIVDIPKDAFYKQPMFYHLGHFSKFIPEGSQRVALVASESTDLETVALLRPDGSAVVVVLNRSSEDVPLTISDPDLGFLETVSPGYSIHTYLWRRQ

[3] = pKa; assay type: physicochemical
[4] = molecular target: T2, rhGCase (Homo sapiens, UniProt P04062); conditions: rats
T2 sequence (P04062 40-536): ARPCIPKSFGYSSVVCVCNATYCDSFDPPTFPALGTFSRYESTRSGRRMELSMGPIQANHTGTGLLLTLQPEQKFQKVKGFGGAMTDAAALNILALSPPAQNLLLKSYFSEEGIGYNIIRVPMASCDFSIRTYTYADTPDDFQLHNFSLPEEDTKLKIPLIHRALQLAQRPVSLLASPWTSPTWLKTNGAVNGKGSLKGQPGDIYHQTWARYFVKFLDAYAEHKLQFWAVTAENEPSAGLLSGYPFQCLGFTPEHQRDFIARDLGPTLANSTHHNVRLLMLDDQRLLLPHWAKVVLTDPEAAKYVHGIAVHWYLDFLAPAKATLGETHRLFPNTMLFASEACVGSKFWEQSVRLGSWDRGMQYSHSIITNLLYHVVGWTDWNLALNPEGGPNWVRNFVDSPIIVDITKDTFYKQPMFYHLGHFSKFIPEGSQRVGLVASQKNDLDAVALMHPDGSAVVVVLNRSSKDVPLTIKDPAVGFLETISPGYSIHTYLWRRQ

[5] = molecular target: T3, GCase N370S (Homo sapiens, UniProt P04062, N409S); assay: cell-based
T3 sequence (P04062 40-536 N409S): T2 sequence (P04062 40-536) with N370S

[6] = Blood-brain barrier penetration in mice, oral 30 mg/kg FBE; assay type: in vivo; conditions: for Kp / Cmax: mouse, oral, 30 mg/kg; for Kp: brain and plasma, read-out: Barin/Plasma Cmax (%); for Cmax: plasma
Description: The ability of a drug to penetrate the blood-brain barrier can be an important function. Without the capability of penetrating into the brain, the drug will not likely have a therapeutic effect in tissues in the brain.

[7] = Brain tissue washout / efflux half-life; assay type: in vivo
Description: To evaluate the potential therapeutic effect of a chaperone, the washout period can be examined to determine the length of time required to washout the inhibitor. Otherwise, enzyme that is successfully trafficked to the lysosome may not have optimal functionality because the chaperone, which also functions as a competitive inhibitor, can continue to compete with the substrate for the enzyme active site.

[8] = molecular target: T4, recombinant human GCase (rhGCase) (Homo sapiens, UniProt P04062); assay: In vitro thermal stability assay of rhGCase (SYPRO Orange fluorescence); assay type: binding; conditions: 100 μM compound, neutral pH; enzyme alone approximately 53° C.
T4 sequence (P04062 40-536): T2 sequence (P04062 40-536)
Description: A dye (SYPRO® Orange) that fluoresces when it binds to hydrophobic regions of enzyme was used to assess stability, because unstable enzyme that loses its native conformation likely exposes internal hydrophobic amino acids, leading to an increase in fluorescence.

[9] = tested on: L444P mice; assay: Example 6: daily oral dosing of Compound 3 in L444P mice; assay type: in vivo
Description: (§1) The purpose of this study was to first confirm that the GlcSph substrate was elevated in N370S and L444P mutant mouse models.
(§2) Both compounds were administered daily via an oral route.

[10] = Blood-brain barrier penetration in rats, single 100 mg/kg FBE p.o.; assay type: in vivo; conditions: rat, brain and plasma, po, exposure in nM-hr, read-out: total brain exposure as % of plasma exposure
[11] = tested on: L444P mice; assay: Example 8: additional dosing regimens of Compound 3 in L444P mice; assay type: in vivo
Description: The purpose of this study was to improve dosing choices based on data collected from Example 7. Specific tissues of L444P mice that were measured were the liver, brain, spleen, bone, marrow, and plasma. […] In Example 8, two dosing strategies were used, fixed dose and constant weekly dose. All doses were administered orally in drinking water. Fixed dose mice were given 1 mg/kg FBE either daily, two days a week, or three days a week. Constant weekly dose mice were given a total of 7 mg/kg FBE per week, either three days a week (Monday, Wednesday, Friday), two days a week (Monday, Thursday), or daily. For example, mice receiving 3 doses per week (Monday, Wednesday, Friday) would receive 2.33 mg/kg FBE in each dose, while mice receiving doses twice a week (Monday, Thursday) would receive 3.5 mg/kg FBE per dose.

[12] = tested on: L444P mice; assay: Example 7: daily dosing of Compound 3 in L444P mice over four weeks, fixed and ascending doses in drinking water; assay type: in vivo
Description: Both fixed and ascending dosing schemes were used and were administered in drinking water. Four fixed dose groups, 0.01 mg/kg FBE, 0.1 mg/kg FBE, 1 mg/kg FBE, and 10 mg/kg FBE were used. A fifth group, which used an ascending dose, was also included, and it began at 0.01 mg/kg FBE and increased by 10-fold each week, with a dose during the final week of 10 mg/kg FBE.

[13] = tested on: L444P mice; assay: Comparison of Examples 6-8 in L444P mice; assay type: in vivo
Description: Changes in brain, liver, and spleen GCase activity were compared across the studies of Examples 6-8. In FIGS. 20 and 21, C1 denotes the study from Example 6, C2 denotes the study from Example 7, and C3 denotes the study from Example 8.

[14] = tested on: N370S mice; assay: Example 6: daily oral dosing of IFG tartrate in N370S mice; assay type: in vivo
Description: as §1, §2

[15] = mice, oral 30 mg/kg FBE, brain tissue
[16] = all dose groups, Day 1 and Day 30 after 24-hour washout
[17] = ascending 0.01-10 mg/kg FBE dose

Compound: O[C@H]1[C@H](O)CNC[C@@H]1C(F)F [Compound 1]
- bioavailability [1]: 106%
- ED50 [2]: 5.2 mg/kg
- pKa [3]: 7.1
- normalized GCase activity in plasma versus rhGCase alone ([4]; 3 mg/kg oral gavage 30 minutes before IV rhGCase): sustained a higher normalized GCase activity in plasma longer
- rhGCase western blot band versus no chaperone ([4]; 3 mg/kg, 5 minute and 10 minute intervals): a more intense protein band
- Emax [5]: 106%
- Brain Cmax at 30 mg/kg [6, 15]: 9.7 µM
- Kp [6]: 0.115
- Cmax [6]: 84.5 µM
- half-life [7]: ~1.4 h
- temperature of peak fluorescence (unfolding) [8]: 65 °C

Compound: Cl.O[C@H]1[C@H](O)CNC[C@@H]1C(F)F [Compound 2]
- crossing of the blood-brain barrier ([6]; mice): capable of crossing the blood-brain barrier
- Brain Cmax at 30 mg/kg [6, 15]: 9.7 µM

Compound: O=C(O)/C=C/C(=O)O.O[C@H]1[C@H](O)CNC[C@@H]1C(F)F [Compound 3]
- enhancement of GCase activity in liver ([9]; 10 mg/kg FBE daily): 7.6 fold
- GlcSph in spleen versus control ([9]; 10 mg/kg FBE daily oral): significant reduction of GlcSph
- enhancement of GCase activity in brain ([9]; 10 mg/kg FBE daily, almost equivalent to wild-type activity): 2.8 fold
- Kp [10]: 0.85
- brain GCase activity versus vehicle ([11]; 1 mg/kg FBE daily dose): increased and was significant
- liver GlcSph concentration versus vehicle ([11]; 1 mg/kg FBE daily dose): significant reduction
- spleen GlcSph concentration versus vehicle ([11]; 1 mg/kg FBE daily dose): significant reduction
- plasma concentration of GlcCer ([11]; across all doses): no significant differences
- GCase activity in brain, liver and spleen versus vehicle ([12]; 0.01 mg/kg FBE and 0.1 mg/kg FBE): did not show significant differences
- brain GlcSph versus vehicle ([12]; 1 mg/kg FBE): increase in GlcSph
- liver GlcSph versus vehicle ([12]; 1 mg/kg FBE): decrease in GlcSph
- spleen GlcSph versus vehicle ([12]; 1 mg/kg FBE): decrease in GlcSph
- increase in brain GCase activity versus vehicle ([12]; 1 mg/kg FBE daily): almost a two-fold increase
- increase in liver GCase activity versus vehicle ([12]; 1 mg/kg FBE daily): 5 fold
- increase in spleen GCase activity versus vehicle ([12]; 1 mg/kg FBE daily): two-fold increase
- brain GlcCer concentration versus vehicle ([12]; 1 mg/kg FBE, after 30 days): No significant difference
- plasma GlcCer versus vehicle [12, 16]: no significant increases or decreases
- plasma GlcSph versus vehicle [12, 16]: no significant increases or decreases
- liver GlcCer concentration versus vehicle ([12]; all dose groups, after 30 days): No significant differences
- brain GlcSph concentration versus vehicle [12, 17]: increase in substrate concentration
- increase in brain GCase activity versus vehicle [12, 17]: about three-fold
- increase in liver GCase activity versus vehicle [12, 17]: about 8 fold
- increase in spleen GCase activity versus vehicle [12, 17]: about 4 fold
- spleen GlcSph concentration versus vehicle [12, 17]: reduction in concentration
- brain GlcCer concentration versus vehicle ([12]; ascending dose, after 30 days): increased
- brain GCase activity ([13]; 0-10 mg/kg FBE ascending dose, studies of Examples 6 and 7): increased
- brain GCase activity ([13]; 1 mg/kg FBE dose, Example 7 and Example 8): increased
- liver GCase activity ([13]; 1 mg/kg FBE dosing regimens, Example 7 and Example 8): elevated
- brain GlcSph level versus vehicle ([13]; 10 mg/kg FBE): increased level of GlcSph over the vehicle
- brain GlcSph level versus vehicle ([13]; ascending dose (0-10 mg/kg FBE)): increased level of GlcSph over the vehicle
- GlcSph substrate level change in the spleen ([13]; ascending dose (0-10 mg/kg FBE) and 1 mg/kg FBE dose, Examples 6-8): significant
- liver GCase activity ([13]; ascending dose, Example 6 and Example 7): higher GCase activity

Compound: OC[C@H]1CNC[C@@H](O)[C@@H]1O [IFG tartrate, isofagomine tartrate]
- GlcSph in liver versus control ([14]; 100 mg/kg FBE daily oral): reduction in GlcSph substrate
- GlcSph in spleen versus control ([14]; 100 mg/kg FBE daily oral): significant reduction of GlcSph
- reduction in bone GlcSph concentration ([14]; bone): 31%
- reduction of GlcSph in marrow ([14]; marrow): 45%
- Kp [10]: 0.29
- crossing of the blood-brain barrier ([6]; mice): capable of crossing the blood-brain barrier
- peak compound concentration in brain ([6]; mice, oral 30 mg/kg FBE, brain tissue, value in nM): 30 nM

Compound: OC[C@H]1CNC[C@@H](O)[C@@H]1O [Isofagomine, isofagomine, reference compound]
- bioavailability [1]: 53%
- ED50 [2]: 56.4 mg/kg
- pKa [3]: 8.4
- Brain Cmax at 30 mg/kg [6, 15]: 0.3 µM
- Kp [6]: 0.0165
- Cmax [6]: 17.5 µM
- Brain tissue efflux (half-life) [7]: 2.9 h
- half-life [7]: ~3 h
